PMC11326893, “A comprehensive measure of Golgi sphingolipid flux using NBD C6-ceramide: evaluation of sphingolipid inhibitors” (Journal of Lipid Research, 2024)

How the values were obtained:
ceramide kinase (CERK) [1] = molecular target: T1, ceramide kinase (CERK) (Homo sapiens, UniProt Q8TCT0); assay: NBD-C6-ceramide to NBD-C1P conversion (HPLC, fluorescence) in MCF7 cells overexpressing CERK; type: cell-based
T1 sequence (Q8TCT0 1-537): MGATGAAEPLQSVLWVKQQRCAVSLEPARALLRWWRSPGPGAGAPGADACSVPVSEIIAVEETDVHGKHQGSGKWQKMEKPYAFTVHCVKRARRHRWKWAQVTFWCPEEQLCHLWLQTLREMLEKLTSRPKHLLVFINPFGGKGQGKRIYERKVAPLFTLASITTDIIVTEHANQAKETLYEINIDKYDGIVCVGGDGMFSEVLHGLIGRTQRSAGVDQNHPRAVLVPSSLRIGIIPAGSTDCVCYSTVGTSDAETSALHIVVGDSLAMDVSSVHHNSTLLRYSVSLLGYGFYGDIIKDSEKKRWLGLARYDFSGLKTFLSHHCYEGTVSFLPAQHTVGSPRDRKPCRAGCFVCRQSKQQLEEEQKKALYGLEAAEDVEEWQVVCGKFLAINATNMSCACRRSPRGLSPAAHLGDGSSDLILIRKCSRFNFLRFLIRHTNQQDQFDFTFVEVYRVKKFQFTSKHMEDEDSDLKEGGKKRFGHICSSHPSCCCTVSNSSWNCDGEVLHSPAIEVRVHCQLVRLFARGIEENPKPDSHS

ceramide kinase (CERK) [2] = molecular target: T1, ceramide kinase (CERK); assay: in vitro activity assay with purified recombinant CERK, NBD-C6-Cer substrate; only about […] decrease at […]; type: biochemical; set-up: full-length human CERK; conditions: read-out: % decrease in activity at 50 μM and 100 μM
[3] = molecular target: T2, glucosylceramide synthase (GCS) (Homo sapiens, UniProt Q16739); assay: NBD-C6-ceramide to NBD-HexCer conversion in MCF7 cells, […] eliglustat; type: cell-based
T2 construct: gene UGCG
T2 sequence (Q16739 1-394): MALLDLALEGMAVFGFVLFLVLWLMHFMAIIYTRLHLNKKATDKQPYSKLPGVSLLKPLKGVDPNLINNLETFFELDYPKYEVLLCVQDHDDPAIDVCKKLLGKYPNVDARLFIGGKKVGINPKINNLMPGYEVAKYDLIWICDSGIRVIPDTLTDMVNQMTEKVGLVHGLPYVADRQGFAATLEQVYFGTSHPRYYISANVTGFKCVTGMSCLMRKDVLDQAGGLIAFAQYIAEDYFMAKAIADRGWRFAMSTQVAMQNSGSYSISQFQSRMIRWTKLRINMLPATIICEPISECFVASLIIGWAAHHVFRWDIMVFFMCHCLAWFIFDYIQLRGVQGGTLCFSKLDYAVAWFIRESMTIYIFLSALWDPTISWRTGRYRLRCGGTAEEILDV

How did the IC50 (ceramide kinase (CERK) [1]) turn out when `O=C(Nc1nc2ccc(NC(=O)C34CC5CC(CC(C5)C3)C4)cc2s1)c1ccccc1` [NVP-231] was run?
Its IC50 is less than 10 nM.

For `CCCCCCCCCC(=O)NC(CN1CCOCC1)C(O)c1ccccc1` (stereo not drawn) [PDMP, 1-phenyl-2-decanoylamino-3-morpholino-1-propanol], which inhibition at 50 µM (ceramide kinase (CERK) [2]) is on record?
The inhibition at 50 µM was 20%.

`CCCCCCCC(=O)N[C@H](CN1CCCC1)[C@H](O)c1ccc2c(c1)OCCO2` [eliglustat] was tested. Which “NBD-C6-ceramide to NBD-HexCer conversion in MCF7 cells, 50 nM eliglustat” value [3] did it give?
Its value is “Inhibition with eliglustat and PDMP both nearly eliminated the production of NBD-C6-HexCer”.
